Laboratory results from patent US20250206729A1, “DUAL RAF AND TUBULIN INHIBITORS AND METHODS OF USE THEREOF” (Deciphera Pharmaceuticals, LLC, priority 2023, published 2025).

Columns and labels:
[1] = system: Pa16c cells; test: Pa16c cell proliferation assay; type: cell-based; conditions: 67 to 72 h incubation, resazurin; read-out: Pa16c (inhibition of cell proliferation, IC50)
[2] = system: HCT-116 cells; test: HCT-116 cell proliferation assay; type: cell-based; conditions: 67 to 72 h incubation, resazurin; for IC50: Homo sapiens, HCT-116, read-out: HCT-116 (inhibition of cell proliferation, IC50)
[3] = system: HPAF-II cells; test: HPAF-II cell proliferation assay; type: cell-based; conditions: Homo sapiens, HPAF-II; 115 to 120 h incubation, resazurin; read-out: HPAF-II (inhibition of cell proliferation, IC50)
[4] = biological target: T1, B-Raf kinase (SEQ ID NO: 1) (Homo sapiens, UniProt P15056); test: Biochemical assay for B-Raf (coupled pyruvate kinase/lactate dehydrogenase); conditions: 1 mM ATP; read-out: BRAF (inhibition of biochemical activity, IC50)
T1 construct: GST (N); purchased Sigma

[5] = biological target: T2, C-Raf kinase (SEQ ID NO: 2) (Homo sapiens, UniProt P04049, Y340D/Y341D); test: Biochemical assay for C-Raf (coupled pyruvate kinase/lactate dehydrogenase); conditions: 1 mM ATP; read-out: CRAF (inhibition of biochemical activity, IC50)
T2 construct: C-Raf residues 306-end; Y340D, Y341D with N-; GST (N); purchased Sigma

[6] = system: MiaPaca-2 cells; test: MiaPaca-2 cell proliferation assay; type: cell-based; conditions: Homo sapiens, MIA PaCa-2; 67-72 h incubation, resazurin; read-out: MiaPaca-2 (inhibition of cell proliferation, IC50)

T1 sequence (P15056 416-766): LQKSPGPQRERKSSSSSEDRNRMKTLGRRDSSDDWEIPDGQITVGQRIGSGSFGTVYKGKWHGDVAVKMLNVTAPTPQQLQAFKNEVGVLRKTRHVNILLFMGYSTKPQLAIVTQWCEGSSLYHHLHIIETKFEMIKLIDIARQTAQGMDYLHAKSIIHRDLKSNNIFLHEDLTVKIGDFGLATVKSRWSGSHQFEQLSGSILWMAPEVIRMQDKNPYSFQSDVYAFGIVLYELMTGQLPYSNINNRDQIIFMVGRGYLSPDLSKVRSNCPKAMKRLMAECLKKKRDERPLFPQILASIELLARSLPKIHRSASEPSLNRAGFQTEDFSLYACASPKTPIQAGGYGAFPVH
T2 sequence (P04049 307-648 Y340D/Y341D): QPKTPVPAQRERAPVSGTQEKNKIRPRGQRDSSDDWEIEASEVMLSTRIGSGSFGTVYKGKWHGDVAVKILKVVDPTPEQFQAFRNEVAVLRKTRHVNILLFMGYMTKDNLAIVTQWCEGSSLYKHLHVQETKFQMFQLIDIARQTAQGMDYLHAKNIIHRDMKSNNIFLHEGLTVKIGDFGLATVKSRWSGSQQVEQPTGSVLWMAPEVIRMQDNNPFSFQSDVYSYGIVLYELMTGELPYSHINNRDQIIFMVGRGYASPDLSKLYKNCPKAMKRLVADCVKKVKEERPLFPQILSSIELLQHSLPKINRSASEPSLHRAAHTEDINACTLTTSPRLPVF

| Compound | IC50 [2] | IC50 [4] | IC50 [5] | IC50 [6] | IC50 [1] | IC50 [3] | HCT-116 (inhibition of cell proliferation, IC50) [2] |
| --- | --- | --- | --- | --- | --- | --- | --- |
| Cc1ccc(NC(=O)c2cc(C(C)(C)F)cnn2)cc1-c1cc(N[C@H](C)CO)nc(N2CCOCC2)c1 [Example 23] | < 100 nM | < 100 nM | < 100 nM | < 100 nM | 100 to 500 nM | < 100 nM |  |
| Cc1ccc(NC(=O)c2cnc(C(F)(F)F)nc2)cc1-c1cc(N[C@H](C)CO)nc(N2CCOCC2)c1 [Example 12] | 1000 to 10000 nM | 500 to 1000 nM | 100 to 500 nM | 500 to 1000 nM | 1000 to 10000 nM | 1000 to 10000 nM |  |
| Cc1ccc(NC(=O)c2cc(C(F)(F)F)cnn2)cc1-c1ccnc(N2CCOCC2)c1 [Example 1, N-(4-methyl-3-(2-morpholinopyridin-4-yl)phenyl)-5-(trifluoromethyl)pyridazine-3-carboxamide] | 100 to 500 nM | 100 to 500 nM | 100 to 500 nM | < 100 nM | 100 to 500 nM | 100 to 500 nM |  |
| Cc1ccc(NC(=O)c2cnc(C(F)(F)F)nc2)cc1-c1cc(OCCO)nc(N2CCOCC2)c1 [Example 11] | 100 to 500 nM | 1000 to 10000 nM | 500 to 1000 nM | 100 to 500 nM | 500 to 1000 nM | 100 to 500 nM |  |
| Cc1ccc(NC(=O)c2cc(C3CC3)cnn2)cc1-c1nccc(N2CCOCC2)n1 [Example 52] | 1000 to 10000 nM | 1000 to 10000 nM | 1000 to 10000 nM | 1000 to 10000 nM | 1000 to 10000 nM | 1000 to 10000 nM |  |
| Cc1ccc(NC(=O)c2cc(C(F)(F)F)cnn2)cc1-c1nccc(N2CCOCC2)n1 [Example 10] | 1000 to 10000 nM | 1000 to 10000 nM | 1000 to 10000 nM | 1000 to 10000 nM | 1000 to 10000 nM | 1000 to 10000 nM |  |
| Cc1ccc(NC(=O)c2cncc(C(F)(F)F)c2)cc1-c1cc(OCCO)nc(N2CCOCC2)c1 [Example 47] | 100 to 500 nM | < 100 nM | < 100 nM | 500 to 1000 nM | 1000 to 10000 nM | 500 to 1000 nM |  |
| Cc1ccc(NC(=O)c2cc(C3CC3)cnn2)cc1-c1cc(N2CCOCC2)nc(N[C@H](C)CO)n1 [Example 35] | 100 to 500 nM | < 100 nM | < 100 nM | 100 to 500 nM | 100 to 500 nM | 100 to 500 nM |  |
| Cc1ccc(NC(=O)c2cc(Cl)cnn2)cc1-c1ccnc(N2CCOCC2)c1 [Example 51] | 500 to 1000 nM | 1000 to 10000 nM | 500 to 1000 nM | 1000 to 10000 nM | 1000 to 10000 nM | 500 to 1000 nM |  |
| Cc1ccc(NC(=O)c2cc(C(F)(F)F)cnn2)cc1-c1cccc(N2CCOCC2)c1 [Example 41] | 100 to 500 nM | 100 to 500 nM | < 100 nM | 100 to 500 nM | 100 to 500 nM | < 100 nM |  |
| Cc1ccc(NC(=O)c2cc(C(F)(F)F)cnn2)cc1-c1cc(N[C@H](C)CO)nc(N2CC3CC(C2)O3)c1 [Example 7] |  | 100 to 500 nM | 100 to 500 nM | < 100 nM | 500 to 1000 nM | < 100 nM | ++ ++ |
| Cc1ccc(NC(=O)c2cc(C(F)(F)F)cnn2)cc1-c1cc(C2CC2)nc(N2CCOCC2)c1 [Example 3] | 100 to 500 nM | 100 to 500 nM | 100 to 500 nM | < 100 nM | < 100 nM | 100 to 500 nM |  |

Second part, led by results:

| IC50 [2] | IC50 [4] | IC50 [5] | IC50 [6] | Compound | IC50 [1] | IC50 [3] | HCT-116 (inhibition of cell proliferation, IC50) [2] |
| --- | --- | --- | --- | --- | --- | --- | --- |
| 100 to 500 nM | 100 to 500 nM | < 100 nM | 100 to 500 nM | Cc1ccc(NC(=O)c2cc(Br)cnn2)cc1-c1cc(N[C@H](C)CO)nc(N2CCOCC2)c1 [Example 82] | 1000 to 10000 nM | 1000 to 10000 nM |  |
| 1000 to 10000 nM | 100 to 500 nM | < 100 nM | 1000 to 10000 nM | Cc1ccc(NC(=O)c2cncc(C3CC3)n2)cc1-c1cc(N[C@H](C)CO)nc(N2CCOCC2)c1 [Example 62] | 1000 to 10000 nM | 1000 to 10000 nM |  |
| < 100 nM | < 100 nM | < 100 nM | < 100 nM | Cc1ccc(NC(=O)c2cc(C(C)(F)F)cnn2)cc1-c1cc(OCCO)nc(N2CCOCC2)c1 [Example 63] | < 100 nM | < 100 nM |  |
| 1000 to 10000 nM | 100 to 500 nM | < 100 nM | 1000 to 10000 nM | Cc1ccc(NC(=O)c2cc(C(C)C)cnn2)cc1-c1cncc(N2CCOCC2)c1 [Example 79] | 1000 to 10000 nM | 1000 to 10000 nM |  |
| 1000 to 10000 nM | 100 to 500 nM | 100 to 500 nM | 1000 to 10000 nM | Cc1ccc(NC(=O)c2cc(C(C)C)cnn2)cc1-c1cc(N2CCOCC2)ncn1 [Example 72] | 1000 to 10000 nM | 1000 to 10000 nM |  |
| 1000 to 10000 nM | 1000 to 10000 nM | 1000 to 10000 nM | 1000 to 10000 nM | Cc1ccc(NC(=O)c2cnc(Br)nc2)cc1-c1cc(N[C@H](C)CO)nc(N2CCOCC2)c1 [Example 69] | 1000 to 10000 nM | 1000 to 10000 nM |  |
| 1000 to 10000 nM | 100 to 500 nM | 100 to 500 nM | 1000 to 10000 nM | Cc1ccc(NC(=O)c2cncc(C(C)C)n2)cc1-c1cc(N[C@H](C)CO)nc(N2CCOCC2)c1 [Example 57, (R)—N-(3-(2-((1-hydroxypropan-2-yl)amino)-6-morpholinopyridin-4-yl)-4-methylphenyl)-6-isopropylpyrazine-2-carboxamide] | 1000 to 10000 nM | 1000 to 10000 nM |  |
| 100 to 500 nM | 1000 to 10000 nM | 1000 to 10000 nM | 100 to 500 nM | Cc1ccc(NC(=O)c2cc(C(F)(F)F)cnn2)cc1-c1nc(N[C@H](C)CO)cc(N2C[C@H]3C[C@@H]2CO3)n1 [Example 90] | 1000 to 10000 nM | 500 to 1000 nM |  |
| 1000 to 10000 nM | 1000 to 10000 nM | 500 to 1000 nM | 1000 to 10000 nM | Cc1ccc(NC(=O)c2cc(C3CC3)cnn2)cc1-c1cncc(N2CCOCC2)n1 [Example 55] | 1000 to 10000 nM | 1000 to 10000 nM |  |
| < 100 nM | 1000 to 10000 nM | 1000 to 10000 nM | < 100 nM | Cc1ccc(NC(=O)c2cc(C(F)(F)F)cnn2)cc1-c1ccnc(N2C[C@H]3C[C@@H]2CO3)c1 [Example 86] | < 100 nM | < 100 nM |  |
| 1000 to 10000 nM | 1000 to 10000 nM | 500 to 1000 nM | 1000 to 10000 nM | Cc1ccc(NC(=O)c2cnc(N)nc2)cc1-c1cc(N[C@H](C)CO)nc(N2CCOCC2)c1 [Example 68] | 1000 to 10000 nM | 1000 to 10000 nM |  |
| 1000 to 10000 nM | 1000 to 10000 nM | 1000 to 10000 nM | 1000 to 10000 nM | Cc1ccc(NC(=O)c2cc(Cl)cnn2)cc1-c1cncc(N2CCOCC2)n1 [Example 65] | 1000 to 10000 nM | 1000 to 10000 nM |  |
| 1000 to 10000 nM | 1000 to 10000 nM | 1000 to 10000 nM | 1000 to 10000 nM | Cc1ccc(NC(=O)c2cc(C3CC3)cnn2)cc1-c1ccnc(N2C[C@@H](C)O[C@@H](C)C2)c1 [Example 85] | 1000 to 10000 nM | 1000 to 10000 nM |  |
| 500 to 1000 nM | 100 to 500 nM | < 100 nM | 500 to 1000 nM | Cc1ccc(NC(=O)c2cc(Br)cnn2)cc1-c1cc(OCCO)nc(N2CCOCC2)c1 [Example 78] | 1000 to 10000 nM | 1000 to 10000 nM |  |
